Results from patent US20210113586A1, “NEW USE AND METHODS OF MODULATING IMMUNE RESPONSES” (DIAMYD MEDICAL AB, priority 2018, published 2021).

Legend:
[1] = system: PBMCs from nondiabetic (ND) individuals; conditions: GABA 100 nM, normalized to control
Description: (§1) The proliferation of freshly isolated human PBMCs or CD4^+ T cells was evaluated with MTT (3-(4,5-Dimethylthiazol-2-yl)-2,5-Diphenyltetrazolium Bromide) assay (Ring et al., 2012). Cells were suspended in complete medium (RPMI 1640 supplemented with 2 mM glutamine, 25 mM HEPES, 10% heat inactivated fetal bovine serum, 100 U/ml penicillin, 10 mg/ml streptomycin, 5 mM R-mercaptoethanol) in a concentration 1 million cells per milliliter. The assay was performed in 96-well plates in duplicates or triplicates, where each well was pre-coated with 3 μg/ml anti-CD3 antibody for 3-5 h at 37° C. Each well was loaded with 100,000 cells. Drugs were added to the wells at the relevant concentrations. The plate was incubated for 68 h at 37° C. (95% O2, 5% CO2) and then, a media-soluble tetrazolium dye MTT was added to a final concentration of 1 mM after which the plate was incubated for additional 4 h. The plate was then centrifuged at 2,000 RPM for 10 min to pellet the insoluble purple formazan crystals. The supernatant culture media was collected, stored at −80° C. and used for analysis of cytokines using the multiplex proximity extension assay (PEA). The formazan crystal pellet was dissolved in DMSO and the plate was read within 10 min using a Multiskan MS plate reader (Labsystems) at 550 nm. The optical density value was used as the proliferation index value. Drugs were purchased from Sigma-Aldrich or Tocris (Bristol, UK).
(§2) Plasma samples, and culture media samples that were collected from plate wells at the end of the proliferation assay, were analyzed by multiplex PEA with an Olink Inflammation […] panel, targeting 92 proteins related to inflammation (Olink Proteomics, Uppsala, Sweden) as previously described (Edvinsson et al., 2017, Assarsson et al., 2014, Larsson et al., 2015, Larssen et al., 2017). Briefly, 1 μl of sample (plasma samples or cell culture media samples) or negative control was mixed with 3 μl probe solution containing a set of 92 paires DNA-oligonucleotide-conjugated antibodies. Upon recognition of a target protein by a pair of probes, the DNA oligonucletodies on the antibodies are brought in proximity and hybridize to each other, followed by enzymatic DNA polymerization to form a new DNA molecule. The newly formed DNA molecule is then amplified and quantified using a microfluidic real-time qPCR, BioMark™ HD (Fluidigm, South San Francisco, Calif., USA). The generated quantification cycle (Cq) values are normalized against spiked-in controls to convert Cq values to Normalized Protein eXpression (NPX) value on log2 scale. NPX is an arbitrary unit, which is positively correlated to protein concentration. These NPX data were then converted to linear data, using the formula 2^NPX, prior to further statistical analysis. Limit of detection (LOD) for each protein was defined as three standard deviations above the background. Proteins with levels below LOD were excluded from further data analysis.

[2] = system: PBMCs from type 1 diabetic (T1D) patients; conditions: GABA 100 nM
Description: as §1, §2

[3] = system: PBMCs from ND individuals; conditions: Example 1, FIG. 1C; PBMCs of 15 healthy donors; 100 nM GABA
Description: Peripheral Blood Mononuclear cells (PBMCs) are isolated from blood from donors diagnosed with Type-1 diabetes and healthy controls. Alternatively, CD4-positive cells (T-cells) are further isolated from PBMCs by e.g. MACS beads, FACS or similar technology. […] A reasonable replication, such as 3 cultures of each condition, is performed. A normalized proliferation value for each culture is then calculated by a standard proliferation measurement method, such as by CFSE staining or radioactive thymidine incorporation (requiring additional factors be added during culture) or by staining for proliferation markers.
In the FIG. 1, the proliferation of cells retrieved from 13 T1D subjects and 15 healthy controls were inspected. […] A normalized proliferation index was calculated for each culture.
The proliferation of freshly isolated human PBMCs or CD4^+ T cells was evaluated with MTT (3-(4,5-Dimethylthiazol-2-yl)-2,5-Diphenyltetrazolium Bromide) assay (Ring et al., 2012). Cells were suspended in complete medium (RPMI 1640 supplemented with 2 mM glutamine, 25 mM HEPES, 10% heat inactivated fetal bovine serum, 100 U/ml penicillin, 10 mg/ml streptomycin, 5 mM R-mercaptoethanol) in a concentration 1 million cells per milliliter. […] The formazan crystal pellet was dissolved in DMSO and the plate was read within 10 min using a Multiskan MS plate reader (Labsystems) at 550 nm. […]

[4] = T1D PBMCs, normalized to control

NCCCC(=O)O [GABA, gamma-aminobutyric acid]
AXIN1 in culture medium, % Mean [1]: 82.3% | CCL4 in culture medium, % Mean [1]: 95.3% | CD244 in culture medium, % Mean [1]: 92.5% | CXCL9 in culture medium, % Mean [1]: 81.3% | IL-12B in culture medium, % Mean [1]: 84.8% | IL-18R1 in culture medium, % Mean [1]: 90.7% | LIF in culture medium, % Mean [1]: 88.5% | OPG in culture medium, % Mean [1]: 81.8% | OSM in culture medium, % Mean [1]: 88.1% | PD-L1 in culture medium, % Mean [1]: 87.8% | SIRT2 in culture medium, % Mean [1]: 81.6% | TNF in culture medium, % Mean [1]: 74.1% | TNFB in culture medium, % Mean [1]: 95.7% | TNFRSF9 in culture medium, % Mean [1]: 99.6% | TNFSF14 in culture medium, % Mean [1]: 89.2% | TWEAK in culture medium, % Mean [1]: 86.3% | 4E-BP1 in culture medium, % Mean [2, 4]: 45.5% | ADA in culture medium, % Mean [2, 4]: 53.4% | AXIN1 in culture medium, % Mean [2, 4]: 62.8% | CASP-8 in culture medium, % Mean [2, 4]: 60.9% | CCL4 in culture medium, % Mean [2, 4]: 85.1% | CCL19 in culture medium, % Mean [2, 4]: 43.8% | CCL20 in culture medium, % Mean [2, 4]: 31.5% | CD244 in culture medium, % Mean [2, 4]: 76.3% | CSF-1 in culture medium, % Mean [2, 4]: 70.5% | CXCL1 in culture medium, % Mean [2, 4]: 52.6% | CXCL5 in culture medium, % Mean [2, 4]: 68.1% | CXCL6 in culture medium, % Mean [2, 4]: 54.0% | CXCL9 in culture medium, % Mean [2, 4]: 45.5% | CXCL10 in culture medium, % Mean [2, 4]: 42.5% | CXCL11 in culture medium, % Mean [2, 4]: 61.4% | EN-RAGE in culture medium, % Mean [2, 4]: 71.1% | Flt3L in culture medium, % Mean [2, 4]: 62.9% | IL-1 alpha in culture medium, % Mean [2, 4]: 43.5% | IL-2RB in culture medium, % Mean [2, 4]: 73.0% | IL-4 in culture medium, % Mean [2, 4]: 117.0% | IL-5 in culture medium, % Mean [2, 4]: 85.3% | IL-6 in culture medium, % Mean [2, 4]: 49.4% | IL-10 in culture medium, % Mean [2, 4]: 61.4% | IL-12B in culture medium, % Mean [2, 4]: 53.3% | IL-13 in culture medium, % Mean [2, 4]: 53.0% | IL-17A in culture medium, % Mean [2, 4]: 58.9% | IL-18R1 in culture medium, % Mean [2, 4]: 63.3% | IL-24 in culture medium, % Mean [2, 4]: 86.9% | LAP TGF-beta-1 in culture medium, % Mean [2, 4]: 67.6% | LIF in culture medium, % Mean [2, 4]: 70.0% | MCP-1 in culture medium, % Mean [2, 4]: 53.0% | MCP-2 in culture medium, % Mean [2, 4]: 35.4% | MCP-3 in culture medium, % Mean [2, 4]: 44.6% | MIP-1 alpha in culture medium, % Mean [2, 4]: 106.2% | MMP-1 in culture medium, % Mean [2, 4]: 78.4% | MMP-10 in culture medium, % Mean [2, 4]: 61.3% | OPG in culture medium, % Mean [2, 4]: 45.1% | OSM in culture medium, % Mean [2, 4]: 69.8% | PD-L1 in culture medium, % Mean [2, 4]: 57.0% | SIRT2 in culture medium, % Mean [2, 4]: 53.5% | STAMP8 in culture medium, % Mean [2, 4]: 53.9% | TGFA in culture medium, % Mean [2, 4]: 61.1% | TNF in culture medium, % Mean [2, 4]: 47.4% | TNFRSF9 in culture medium, % Mean [2, 4]: 71.1% | TNFSF14 in culture medium, % Mean [2, 4]: 69.9% | TRAIL in culture medium, % Mean [2, 4]: 67.0% | TWEAK in culture medium, % Mean [2, 4]: 55.7% | VEGF-A in culture medium, % Mean [2, 4]: 82.1% | μPA in culture medium, % Mean [2, 4]: 86.3% | number of cytokines whose release was increased ([2]; n=13, FIG. 4c): two | proliferation in the presence of GABA [3]: did not proliferate differently
